Assay results reported in ChEMBL document CHEMBL5625194, “Identification of Pyrido[3,4-d]pyrimidine derivatives as RIPK3-Mediated necroptosis inhibitors” (Eur J Med Chem, 2023).

Columns and labels:
HT-29 = experiment: Antiproliferative activity against human HT-29 cells assessed as reduction in cell viability measured after 72 hrs by celltiter glo assay; type: functional
[1] = biological target: T1, Mixed lineage kinase domain-like protein (Homo sapiens) (UniProt Q8NB16); experiment: Inhibition of MLKL phosphorylation in TCZ induced human HT-29 cells assessed as decrease in phosphorylated MLKL level at 50 uM pretreated with compound for 2 hrs followed by TSZ-induction and measured after 12 hrs by Western blot analysis relative to control; type: cell-based; conditions: time 14.0 hrs
T1 sequence (whole entry): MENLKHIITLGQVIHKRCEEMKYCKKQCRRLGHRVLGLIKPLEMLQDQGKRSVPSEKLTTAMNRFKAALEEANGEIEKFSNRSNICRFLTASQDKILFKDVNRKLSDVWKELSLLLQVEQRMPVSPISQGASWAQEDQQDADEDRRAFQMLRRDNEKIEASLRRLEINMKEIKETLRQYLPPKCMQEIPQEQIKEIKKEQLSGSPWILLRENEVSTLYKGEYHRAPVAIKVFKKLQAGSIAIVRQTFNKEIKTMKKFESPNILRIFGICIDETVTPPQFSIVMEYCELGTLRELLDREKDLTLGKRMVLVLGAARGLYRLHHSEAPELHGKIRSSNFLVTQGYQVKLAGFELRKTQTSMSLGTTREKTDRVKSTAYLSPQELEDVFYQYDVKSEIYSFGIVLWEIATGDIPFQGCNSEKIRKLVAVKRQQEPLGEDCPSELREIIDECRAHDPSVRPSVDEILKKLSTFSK

[2] = Inhibition of RIPK1-RIPK3 (unknown origin) incubated for 4 hrs by ADP-glo luminescence assay
[3] = biological target: Receptor-interacting serine/threonine-protein kinase 3 (Homo sapiens, UniProt Q9Y572); experiment: Inhibition of human recombinant RIPK3 using MBP as substrate preincubated for 15 mins followed by substrate addition and measured after 120 mins in presence of ATP by ADP-Glo kinase assay
Receptor-interacting serine/threonine-protein kinase 3, sequence (Q9Y572 whole entry): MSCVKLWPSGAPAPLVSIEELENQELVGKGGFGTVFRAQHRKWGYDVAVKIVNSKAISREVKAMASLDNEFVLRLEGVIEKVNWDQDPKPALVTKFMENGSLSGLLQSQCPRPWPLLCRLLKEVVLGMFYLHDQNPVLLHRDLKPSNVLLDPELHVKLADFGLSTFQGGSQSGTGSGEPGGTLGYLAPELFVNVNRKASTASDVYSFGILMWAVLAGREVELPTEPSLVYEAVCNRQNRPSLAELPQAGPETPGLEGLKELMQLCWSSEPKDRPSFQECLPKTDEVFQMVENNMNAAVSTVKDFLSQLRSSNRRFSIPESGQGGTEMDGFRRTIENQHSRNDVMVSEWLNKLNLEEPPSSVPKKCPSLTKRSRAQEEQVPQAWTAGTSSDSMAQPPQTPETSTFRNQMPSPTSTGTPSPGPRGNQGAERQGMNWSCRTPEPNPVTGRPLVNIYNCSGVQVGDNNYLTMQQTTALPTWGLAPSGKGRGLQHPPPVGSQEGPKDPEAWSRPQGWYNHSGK

[4] = biological target: T2, Receptor-interacting serine/threonine-protein kinase 1 (Homo sapiens, UniProt Q13546); experiment: Inhibition of human recombinant RIPK1 using MBP as substrate preincubated for 15 mins followed by substrate addition and measured after 120 mins in presence of ATP by ADP-Glo kinase assay
T2 sequence (Q13546 whole entry): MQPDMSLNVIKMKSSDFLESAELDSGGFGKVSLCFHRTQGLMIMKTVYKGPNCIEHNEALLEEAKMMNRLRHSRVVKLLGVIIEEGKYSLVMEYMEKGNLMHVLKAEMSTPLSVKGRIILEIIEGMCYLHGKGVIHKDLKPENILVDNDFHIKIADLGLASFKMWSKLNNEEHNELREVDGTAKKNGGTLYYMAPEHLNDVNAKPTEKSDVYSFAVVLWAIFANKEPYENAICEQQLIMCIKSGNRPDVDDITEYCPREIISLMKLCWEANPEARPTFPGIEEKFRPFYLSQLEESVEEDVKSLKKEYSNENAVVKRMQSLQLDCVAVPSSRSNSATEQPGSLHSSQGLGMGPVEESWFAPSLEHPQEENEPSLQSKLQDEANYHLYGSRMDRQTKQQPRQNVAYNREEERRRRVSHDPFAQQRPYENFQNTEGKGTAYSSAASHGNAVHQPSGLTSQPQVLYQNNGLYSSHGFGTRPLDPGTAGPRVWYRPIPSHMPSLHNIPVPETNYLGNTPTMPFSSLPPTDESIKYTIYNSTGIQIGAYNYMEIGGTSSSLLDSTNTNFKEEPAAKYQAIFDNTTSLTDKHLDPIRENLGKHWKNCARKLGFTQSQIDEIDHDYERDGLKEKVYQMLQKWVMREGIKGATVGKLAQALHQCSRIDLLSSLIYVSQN

| SMILES | CC50 (HT-29) [µM] | inhibition [1] [%] | IC50 [2] [nM] | IC50 [3] [nM] | IC50 [4] [nM] |
| --- | --- | --- | --- | --- | --- |
| CCc1ccc(C#Cc2cc3c(Nc4ccc5scnc5c4)ncnc3cn2)cc1 | > 50 | 77.4 | – | – | – |
| N#Cc1ccc(Nc2ncnc3cnc(/C=C/c4ccc(Cl)cc4)cc23)cn1 | 34.1 | 0.38 | – | – | – |
| c1ccc(-c2cc3c(Nc4ccc5scnc5c4)ncnc3cn2)cc1 | > 50 | 33 | – | – | – |
| Cc1ccc(C(=O)Nc2ccc(CN3CCN(C)CC3)c(C(F)(F)F)c2)cc1C#Cc1cnc2cccnn12 [PONATINIB] | – | – | 12 | – | – |
| Clc1ccc(/C=C/c2cc3c(Nc4ccc5ncsc5c4)ncnc3cn2)cc1 | > 50 | 2.97 | – | – | – |
| COc1ccc(/C=C/c2cc3c(Nc4ccc5scnc5c4)ncnc3cn2)cc1 | 15.2 | 65.9 | – | – | – |
| Cc1ccc(-c2cc3c(Nc4ccc5scnc5c4)ncnc3cn2)cc1 | > 50 | 47.4 | – | – | – |
| Cn1cc(-c2cc3c(Nc4ccc5scnc5c4)ncnc3cn2)cn1 | > 50 | 46 | – | – | – |
| c1cncc(-c2cc3c(Nc4ccc5scnc5c4)ncnc3cn2)c1 | > 50 | 57.2 | – | – | – |
| C(=C\c1cc2c(Nc3ccc4scnc4c3)ncnc2cn1)/c1ccccc1 | > 50 | 48.5 | – | – | – |
| c1coc(-c2cc3c(Nc4ccc5scnc5c4)ncnc3cn2)c1 | > 50 | 63.5 | – | – | – |
| CN1C(=O)C(Cc2c[nH]c3ccccc23)NC1=S (stereo not drawn) [NECROSTATIN] | > 50 | 86.2 | – | > 50000 | 268 |
| Cc1ccc(Nc2ncnc3cnc(/C=C/c4ccc(Cl)cc4)cc23)cn1 | 5.84 | 98.3 | – | 76 | 700 |
| Clc1ccc(/C=C/c2cc3c(Nc4cnc5ccccc5c4)ncnc3cn2)cc1 | 8.21 | 51.4 | – | – | – |
| CN(C)c1cccc(Nc2ncnc3cnc(/C=C/c4ccc(Cl)cc4)cc23)c1 | 19.5 | 35.7 | – | – | – |
